Results on 13 molecules are retold here after patent US5670493A, “Aminophenylphosphonic acid compounds” (priority 1995, dated 1997).

Counter-ions that a name gives are not always drawn.

One data set has as its system M 5076 sarcoma. The data set can be described thus: Inhibition of tumor growth in vivo in M 5076 sarcoma in mice. To be noted: for M 5076 sarcoma % ITG (inhibition of tumor growth): 13th day; for correlation between antitumor activity and inhibition of angiogenesis: M 5076 antitumor activity versus CAM test, in words. Here is the method: The malignant cells (10^6 /mouse) are inoculated subcutaneously on day 0 to form a tumor nodule. The mice are then distributed at random in treated/control groups (12 mice/group). […] The inhibition of tumor growth (ITG) is evaluated on the 13th day according to the following calculation: [formula]

Data set [1] in a line: Cytotoxicity, L1210 (microculture tetrazolium assay). The format is cell-based, murine. To be noted: mouse, l1210 cells; L1210, 2 days; read-out: Cytotoxicity L 1210 IC50. Here is the method:
(§1) Three cell lines were used:
(§2) 1 murine leukemia, L1210,
(§3) The cells are cultured in complete RPMI 1640 medium containing 10% of fetal calf serum, 2 mM glutamine, 50 units/ml of penicillin, 50 μg/ml of streptomycin and 10 mM HEPES (pH=7.4).
(§4) The cells are distributed in microplates and exposed to the compounds of the invention. The cells are then incubated for two days (L1210), 3 days (PAEC) and 4 days (A431). The number of viable cells is then quantified by a colorimetric assay, the microculture tetrazolium assay (Carmichael J., DeGraff W. G., Gazdar A. F., Minna J. D. and Mitchell J. R., Evaluation of a tetrazolium-based semiautomated colorimetric assay: assessment of chemosensitivity testing, Cancer Res., 47, 936-942, (1987)).

In data set [2] the test system is L1210, A431 and PAEC cells. The data set can be described thus: Cytotoxicity (microculture tetrazolium assay), three cell lines. The format is cell-based, murine (L1210), human (A431), pig (PAEC). To be noted: in words. Here is the method: as §1, §2
1 human epidermoid carcinoma, A431,
(§5) 1 primary culture of pig aorta endothelial cells, PAEC.
as §3, §4

Data set [3] concerns chick embryo chorioallantoic membrane. The data set can be described thus: Inhibition of the neovascularization of the chick embryo chorioallantoic membrane (CAM test). The format is in vivo. To be noted: for inhibition at 125 µM: Gallus gallus, % of eggs with avascular zone > 4 mm, 48 hours; for CAM test: collective results table, with spread, % of eggs displaying an avascular zone. Here is the method:
This test is carried out with chick embryos as described previously (Crum R., Szabo S. and Folkman J., Science, (1985), 230, 1375-1378). Fertilized eggs (D0) are incubated at 37° C. An air pocket is created by withdrawing 1 ml of albumin (D3), and a window is then cut in the shell (D4) and the vitelline membrane is removed to expose the chorioallantoic membrane (CAM).
The test products are solubilized in ethanol and applied to methylcellulose disks, which are dried and applied to CAM on day 6. Between 8 and 16 eggs are used per group. The zone located around the disk is then examined 48 hours later. Eggs displaying an avascular zone greater than 4 mm in diameter are counted, and the results are expressed as a percentage of eggs displaying an avascular zone. […]

A short description of data set [4]: Cytotoxicity, PAEC (microculture tetrazolium assay). The format is cell-based. To be noted: pig, aorta endothelial cells paec, 3 days, read-out: Cytotoxicity PAEC IC50. Here is the method: as §1, §5, §3, §4
A further data set deals with murine leukemia, L1210. The data set can be described thus: Cytotoxicity, L1210 (microculture tetrazolium assay). The class given is cell-based. The procedure:
as §1, §2, §3, §4

Regarding `O=C(CCCCCCCCC(=O)Nc1ccc(P(=O)(O)O)cc1)Nc1ccc(P(=O)(O)O)cc1` [Example 1, 4,4'-[1,8-Octanediylbis(carbonylamino)]bis(phenylphosphonic acid)tetrasodium salt], in the data set with M 5076 sarcoma (60 mg/kg, intraperitoneal day 1 to day 12), the “M 5076 sarcoma % ITG (inhibition of tumor growth)” value is given as 61%. Further, the “correlation between antitumor activity and inhibition of angiogenesis” value in the data set on M 5076 sarcoma was “very good correlation”. For the same molecule, the CC50 at 48 h in data set [1] is more than 500 µM. In data set [2], the cytotoxic effect result is on record as “without a cytotoxic effect”. Also, in data set [3], the inhibition at 125 µM turned out to be 64% and the CAM test is 64 ± 6%. Also, the CC50 at 72 h in data set [4] is more than 500 µM.
In data set [3], `O=C(CCCCCCCCCCC(=O)Nc1ccc(P(=O)(O)O)cc1)Nc1ccc(P(=O)(O)O)cc1` [Example 5, 4,4'-[1,10-Decanediylbis(carbonylamino)]bis(phenylphosphonic acid)tetrasodium salt] gave an inhibition at 125 µM of 68%.
With `O=C(CCCCCCCCCCCCC(=O)Nc1ccc(P(=O)(O)O)cc1)Nc1ccc(P(=O)(O)O)cc1` [Example 7, 4,4'-[1,12-Dodecanediylbis(carbonylamino)]bis(phenylphosphonic acid)], in data set [3], the inhibition at 125 µM is 56%.
Still for that read-out and setting: next, `O=C(CCCCCCCCCCCCCC(=O)Nc1ccc(P(=O)(O)O)cc1)Nc1ccc(P(=O)(O)O)cc1` [Example 8, 4,4'-[1,13-Tridecanediylbis(carbonylamino)]bis(phenylphosphonic acid)]: 90%.
`O=C(Nc1ccc(P(=O)(O)O)cc1)c1ccc(Cc2ccc(C(=O)Nc3ccc(P(=O)(O)O)cc3)cc2)cc1` [Example 11, 4,4'-[4,4'-Diphenylmethanediylbis(carbonylamino)]bis(phenylphosphonic acid)tetra-sodium salt]: the “M 5076 sarcoma % ITG (inhibition of tumor growth)” value in the data set on M 5076 sarcoma (30 mg/kg, intraperitoneal day 1 to day 12) worked out at 60%. Also, in the data set with M 5076 sarcoma, the “correlation between antitumor activity and inhibition of angiogenesis” value was “very good correlation”. In addition, the CC50 at 48 h in data set [1] is more than 500 µM. In addition, in data set [2], the cytotoxic effect entry is “without a cytotoxic effect”. Besides, in data set [3], the inhibition at 125 µM was found to be 65% and the CAM test is 65 ± 8%. Besides, in data set [4], the CC50 at 72 h turned out to be 429 µM.
With `O=C(C=Cc1ccc(C=CC(=O)Nc2ccc(P(=O)(O)O)cc2)cc1)Nc1ccc(P(=O)(O)O)cc1` [Example 24, 4,4'-[1,4-Divinylenebenzenediylbis(carbonylamino)]bis(phenylphosphonic acid)], in data set [3], the inhibition at 125 µM is 82%.
For the molecule `O=C(CC[C@H]1CC[C@H](CCC(=O)Nc2ccc(P(=O)(O)O)cc2)CC1)Nc1ccc(P(=O)(O)O)cc1` [Example 32, 4,4'-[trans-1,4-Diethylenecyclohexanediylbis(carbonylamino)]bis(phenylphosphonic acid)], testing at 125 µM in data set [3] gave an inhibition of 80%.
As to `O=C(C=Cc1ccc(C=CC(=O)Nc2ccc(P(=O)(O)O)cc2)s1)Nc1ccc(P(=O)(O)O)cc1` [Example 39, 4,4'-[2,5-Divinylenethiophenediylbis(carbonylamino)]bis(phenylphosphonic acid)], 125 µM produced 75% inhibition in data set [3].
Take `O=C(C=Cc1ccc2cc(C=CC(=O)Nc3ccc(P(=O)(O)O)cc3)ccc2c1)Nc1ccc(P(=O)(O)O)cc1` [Example 40, 4,4'-[2,6-Divinylenenaphthalenediylbis(carbonylamino)]bis(phenylphosphonic acid)]: in data set [3], 125 µM produced 68% inhibition.
With `O=C(C=Cc1ccc(C=CC(=O)Nc2ccc(P(=O)(O)O)cc2)c2ccccc12)Nc1ccc(P(=O)(O)O)cc1` [Example 44, 4,4'-[1,4-Divinylenenaphthalenediylbis(carbonylamino)]bis(phenylphosphonic acid)], the inhibition at 125 µM in data set [3] was determined as 80%.
On the same count and under the same terms, the figure for `O=C(C=C[C@H]1CC[C@H](C=CC(=O)Nc2ccc(P(=O)(O)O)cc2)CC1)Nc1ccc(P(=O)(O)O)cc1` [Example 45, 4,4'-[1,4-trans-Divinylenecyclohexanediylbis(carbonylamino)]bis(phenylphosphonic acid)] is 89%; for `O=C(/C=C/C=C/c1ccc(/C=C/C=C/C(=O)Nc2ccc(P(=O)(O)O)cc2)cc1)Nc1ccc(P(=O)(O)O)cc1` [Example 47, 4,4'-[1,4-Di(1,3-trans-trans-butadienylene)benzenediylbis(carbonylamino)]bis(phenylphosphonic acid)] it is 93%.
`Cc1ccc(C(=O)Nc2ccc(S(=O)(=O)O)c3cc(S(=O)(=O)O)cc(S(=O)(=O)O)c23)cc1NC(=O)c1cccc(NC(=O)Nc2cccc(C(=O)Nc3cc(C(=O)Nc4ccc(S(=O)(=O)O)c5cc(S(=O)(=O)O)cc(S(=O)(=O)O)c45)ccc3C)c2)c1` [Suramin, suramin, reference compound]: the “M 5076 sarcoma % ITG (inhibition of tumor growth)” value in the data set on M 5076 sarcoma (100 mg/kg, d 1,4,7 i.v.) came out at 67%. Besides, the “cytotoxicity on the L 1210 leukemic line” value with murine leukemia, L1210 is on record as “relative cytotoxicity”. In addition, in data set [1], the CC50 at 48 h turned out to be 131 ± 21 µM. In data set [3], this molecule registered an inhibition at 125 µM of 20% and a CAM test of 20 ± 3%. Also, the “inhibition of neovascularization (CAM)” value in data set [3] (in words) is recorded as “weak inhibition of neovascularization”. Moreover, the CC50 at 72 h in data set [4] is 202 ± 10 µM.

A word on the inhibition: it is the change of the read-out against control, counted positive when it falls.
